Assay results from the OligoGym collection.
After the bases stand the sugars from the 5' end (letter, count) and the backbone: PS all phosphorothioate, else s phosphorothioate and o phosphodiester by linkage. Methylation of C is not given here. l = locked nucleic acid (LNA); d = 2'-deoxy (DNA)

Target: SNHG14
Conditions: ASO

Sequence | target mRNA inhibition (Human Neuronal Cell, 7.5 µM) | target mRNA inhibition (Human Neuronal Cell, 0.2 µM) | target mRNA inhibition (Human Neuronal Cell, 1 µM) | also measured
AGATCATTCTCAACAATT (sugars l3 d1 l1 d9 l4, PS) | 43% | – | – | –
TTCTTAGTCACACACA (sugars l4 d10 l2, PS) | – | -3% | -43% | –
AAAATCTCAACTACCATTTT (sugars llddllddddddddddldll, PS) | 23% | – | – | –
TCTCTACAACAGTCCCA (sugars l2 d13 l2, PS) | – | 44% | 55% | –
CCAAATAAGCAAACTC (sugars l3 d10 l3, PS) | – | 60% | 39% | –
ACTTCACACCTATTATAT (sugars l3 d12 l3, PS) | – | 21% | 45% | –
AGTTCTACTATACTTTCC (sugars lddddldddddddlddll, PS) | 60% | – | – | –
TGTACTTTCCTTTACCA (sugars l2 d13 l2, PS) | – | 33% | 59% | –
CCTCTGCTTATAACTT (sugars l3 d10 l3, PS) | – | 47% | 68% | –
TACCAATAGTTACCTT (sugars l2 d10 l4, PS) | – | 30% | 49% | –
TTTCCATTTATTTCCATTTA (sugars lddddldddddddddlddll, PS) | 44% | – | – | –
TTTTTATACCTTTCTTTAAC (sugars lllldddddddddldlddll, PS) | 69% | – | – | –
ATCCCTTTGTAATCAT (sugars l4 d10 l2, PS) | – | 33% | 28% | –
AAATATTGCCACCATT (sugars l2 d10 l4, PS) | – | 51% | 63% | –
TTATACCCTTTCCAAT (sugars l2 d10 l4, PS) | – | 40% | 60% | –
ATCTCATGACCACCTAA (sugars ldldddddddddlldll, PS) | 51% | – | – | –
TTTATTTCCATTTATTTTC (sugars l5 d7 l1 d3 l3, PS) | 55% | – | – | –
TTTATCAATATCTTCTCACT (sugars lddlddldddddddddldll, PS) | 58% | – | – | –
ATTTTTTTCTTACTATCTTC (sugars ldddllddddddddlddlll, PS) | 58% | – | – | –
ATTGATTCAATTCCCTT (sugars lddlddddddddlldll, PS) | 61% | – | – | –
AAAATCTCAACTACCATTT (sugars l3 d10 l6, PS) | 48% | – | – | –
AAAGATCATTCTCAACAA (sugars l5 d10 l3, PS) | 64% | – | – | –

Sequence | target mRNA inhibition (Human Neuronal Cell, 7.5 µM) | target mRNA inhibition (Human Neuronal Cell, 0.2 µM) | target mRNA inhibition (Human Neuronal Cell, 1 µM) | also measured
AGCAACATTATTAACCAC (sugars l3 d9 l3 d1 l2, PS) | 27% | – | – | –
TTCTGTATACACCATCC (sugars l1 d10 l1 d3 l2, PS) | 51% | – | – | –
TTCCATTTATTTCCATTTAT (sugars ldldllddddddddldddll, PS) | 59% | – | – | –
GAAAATCTCAACTACCATT (sugars l2 d1 l2 d10 l4, PS) | 60% | – | – | –
TTTATCAATATCTTCTCA (sugars lddlllddddddlddlll, PS) | 60% | – | – | –
CTTGACTACACATCTT (sugars l3 d10 l3, PS) | – | 50% | 54% | –
CCTACATCTCATACTTG (sugars l4 d11 l2, PS) | – | -13% | 17% | target mRNA inhibition (Human Neuronal Cell, 5 µM): 12%; target mRNA inhibition (Mouse Primary Neuronal Cell, 0.005 µM): 94.2%
GTTTCCATCTACTATTAAT (sugars ldddlddddddddlddlll, PS) | 58% | – | – | –
TTATAGCCATTCTATCT (sugars llldlddddddldddll, PS) | 52% | – | – | –
CTTTTAACCAGAGTGGCAT (sugars l3 d13 l3, PS) | 62% | – | – | –
CAACTATTATCTTCTT (sugars l2 d10 l4, PS) | – | 42% | 61% | –
CTTTTAACCAGAGTG (sugars l4 d7 l4, PS) | 54% | – | – | –
AAGATCATTCTCAACAAT (sugars lllldldddddddlldll, PS) | 19% | – | – | –
AGCATCATATAAACCT (sugars l3 d10 l3, PS) | – | 34% | 26% | –
TTTGACATTCCATCTC (sugars l3 d10 l3, PS) | – | 56% | 59% | –
GTTTCCATCTACTATTAAT (sugars ldddldddddddldldlll, PS) | 63% | – | – | –
TTACTCTTAGCAACCT (sugars l4 d10 l2, PS) | – | 58% | 54% | –
CAAAGATCATTCTCAAC (sugars l1 d2 l2 d6 l6, PS) | 34% | – | – | –
TCACTGCCATCAATAC (sugars l4 d10 l2, PS) | – | 42% | 45% | –
TTTCCAATGAATCTAT (sugars l2 d10 l4, PS) | – | 21% | 36% | –
AAAATCTCAACTACCATTT (sugars l6 d9 l4, PS) | 23% | – | – | –
